Patent US7217723B2, “Heterocyclic compound having oxime group” (Eisai Co., Ltd., priority 2004, dated 2007)
pIC50: −log10 of the molar value.

System: STAT6 activation
Assay: STAT6 activation inhibition test (IL-4-induced alkaline phosphatase STAT6 reporter gene assay)
Type: cell-based, human
Details: Homo sapiens, HEK293; concentration giving 50% suppression of alkaline phosphatase activity induced by IL-4 (1 ng/mL), 16 hours; 293 cells stably expressing STAT6 gene and STAT6 reporter gene
Description: The inhibitory activity on STAT6 activation of the compound according to present invention was evaluated according to the following test.
1) Construction of the STAT6 Reporter Gene
The oligonucleotide of SEQ ID: 1 resuting from three STAT6 binding regions of the human immunoglobulin germline ε gene promoter linked togeter, and the complementary strand thereof were mixed, and after thermal denaturation and annealing, the 5′ and the 3′ ends were respectively cut with the restriction enzymes Kpn I (TaKaRa Shuzo Code No. 1068A) and Xba I (TaKaRa ShuzoCode No. 1093A), and the resulting fragment was cloned into the Kpn I/Xba I site of the pUG-BGH-PLAP vector (described in Molecular Pharmacology, 49: 860–873 1996). In addition, the TK promoter region of the herpesvirus for inducing general transcription factors was cloned into the Xba I/Hind III (TaKaRa ShuzoCode No. 1060A) site of the pUG-BGH-PLAP vector. Then, to collect a stable expression cell strain, the neomycin resistance gene, that is a PGK-neo expression cassette, was incorporated into the Sal I (TaKaRa Shuzo, Code No. 1080A) site of this vector. Cloning of the TK promoter and the PGK-neo expression cassette was carried out according to Molecular Pharmacology, 49: 860–873 1996.
2) Construction of the STAT6 Expression Vector
Using the oligonucleotide of SEQ ID: 2 containing the initiation codon of the STAT6 gene and the oligonucleotide of SEQ ID: 3 containing the stop codon, Total RNA was prepared from human peripheral blood cells with the RNeasy Mini kit (OIAGEN, Code No. 74104). Thereafter, a reverse transcription reaction was carried out with the Takara RNA LA PCR kit (TaKaRa Shuzo, Code No. RR012A) to prepare cDNA, and using the primers of SEQ ID: 2 and 3, a PCR reaction was carried out, to amplify the STAT6 gene.
PCR product was digested with EcoR I (TaKaRa Shuzo, Code No. 1040A) and Xho I (TaKaRa Shuzo, 1094A), thereafter, the digested fragment was isolated on an agarose gel. The isolated fragment was incorporated into the vector fragment derived from the EcoR I/Xho I digestion of the pcDNA3.1 (+) (invtrogen, Code No. U790-20) vector.
3) Transformation and Preparation of a Stable Expression Cell Strain
In a Falcon 6-well plate for tissue culture (Becton Dickinson, Code No. 35-3046), 3.0×10^5 of 293 cells derived from human embryo kidney (American Type Culture Collection) were distributed and cultured overnight. The STAT6 reporter gene (1.5 μg), the STAT6 gene (1.5 μg) that were prepared and lipofectamine (GIBCO BRL, Code No. 18324-012) (20 μL) were mixed in OPTI-MEM culture medium (GIBCO BRL, Code No. 31985-070) (0.3 mL), and allowed to stand at room temperature for 20 minutes. Thereafter, the OPTI-MEM culture medium (1.2 mL) was further added, OPTI-MEM culture medium not containing fetal calf serum was added to washed cells, which were cultured for 2 hours. A culture medium (1.5 mL) containing fetal calf serum was added, and the cells were cultured for 19 more hours. The culture was continued by exchanging the culture medium and adding Geneticin (SIGMA, Code No. G-5013) so as to obtain 1 mg/mL, and cells with drug tolerance were selected. The selected drug tolerant cells were suspended in a culture medium containing 1 mg/mL of Geneticin, and distributed in a 96-well microplate (Becton Dickinson, Code No. 35-3072) so as to obtain 0.5 cells/well to carrry out cloning, and the clones expressing alkaline phosphatase in response to IL-4 were collected.
4) STAT6 Activation Inhibition Test
Cells stably expressing the STAT6 gene and the STAT6 reporter gene, and expressing alkaline phosphatase in response to IL-4 were distributed in a 96-well microplate (Becton Dickinson, Code No. 35-3072) so as to obtain 5000 cells/180 μL/well, and cultured overnight. […]

| SMILES | pIC50 |
| --- | --- |
| CN(CCc1cccnc1)S(=O)(=O)c1csc2c1CCC/C2=N/O [Example 7, (7Z)-7-Hydroxyimino-4,5,6,7-tetrahydro-benzo[b]thiophene-3-sulfonic acid methyl-(2-pyridine-3-yl-ethyl)-amide] | 8.32 |
| CN(CCc1ccncc1)S(=O)(=O)c1csc2c1CCC/C2=N/O [Example 9, (7Z)-7-Hydroxyimino-4,5,6,7-tetrahydro-benzo[b]thiophene-3-sulfonic acid methyl-(2-pyridine-4-yl-ethyl)-amide] | 9.09 |
| CN(C[C@@H](O)c1ccc(F)cc1)S(=O)(=O)c1csc2c1CCC/C2=N/O [Example 13, (7Z)-N-[(2S)-2-(4-Fluorophenyl)-2-hydroxyethyl]-7-(hydroxyimino)-N-methyl-4,5,6,7-tetrahydro-1-benzothiophene-3-sulfonamide] | 9.44 |
| CN(C[C@H](O)c1ccc(F)cc1)S(=O)(=O)c1csc2c1CCC/C2=N/O [Example 14, (7Z)-N-[(2R)-2-(4-Fluorophenyl)-2-hydroxyethyl]-7-(hydroxyimino)-N-methyl-4,5,6,7-tetrahydro-1-benzothiophene-3-sulfonamide] | 7.52 |
| CN(CC(O)c1ccncc1)S(=O)(=O)c1csc2c1CCC/C2=N/O (centres unmarked) [Example 21, (7Z)-7-Hydroxyimino-4,5,6,7-tetrahydro-benzo[b]thiophene-3-sulfonic acid (2-hydroxy-2-pyridine-4-yl-ethyl)-methyl-amide] | 8.25 |
| CN(CC(O)c1ccc(F)cc1)S(=O)(=O)c1c(N)sc2c1CCC/C2=N/O (centres unmarked) [Example 26, (7Z)-2-Amino-7-hydroxyimino-4,5,6,7-tetrahydro-benzo[b]-thiophene-3-sulfonic acid [2-(4-fluorophenyl)-2-hydroxyethyl]-methyl-amide] | 8.59 |
| CN(CC(O)c1ccc(F)cc1)S(=O)(=O)c1c(N)sc2c1CCC/C2=N\O (centres unmarked) [Example 27, (7E)-2-Amino-7-hydroxyimino-4,5,6,7-tetrahydro-benzo[b]-thiophene-3-sulfonic acid [2-(4-fluorophenyl)-2-hydroxyethyl]-methyl-amide] | 7.96 |
| CC(C)C(=NO)c1cc(S(=O)(=O)N(C)CCc2ccc(F)cc2)cs1 [Example 47, 5-(1-Hydroxyimino-2-methylpropyl)thiophene-3-sulfonic acid [2-(4-fluorophenyl)-ethyl]-methyl-amide] | 7.92 |
| CC(C)C(=NO)c1cc(S(=O)(=O)N(C)CC(O)c2ccc(F)cc2)cs1 (centres unmarked) [Example 48, 5-(1-Hydroxyimino-2-methylpropyl)thiophene-3-sulfonic acid [2-(4-fluorophenyl)-2-hydroxyethyl]-methyl-amide] | 7.52 |

Same assay, conditions: concentration giving 50% suppression of alkaline phosphatase activity induced by IL-4 (1 ng/mL), 16 hours; 293 cells stably expressing STAT6 gene and STAT6 reporter gene

| SMILES | pIC50 |
| --- | --- |
| CN(CC(O)c1ccc(F)cc1)S(=O)(=O)c1csc2c1CCC/C2=N/O (centres unmarked) [Example 1, (7Z)-7-Hydroxyimino-4,5,6,7-tetrahydro-benzo[b]thiophene-3-sulfonic acid[2-(4-fluorophenyl)-2-hydroxyethyl]-methyl-amide] | 8.95 |
| CN(CC(O)c1ccc(F)cc1)S(=O)(=O)c1csc2c1CCC/C2=N\O (centres unmarked) [Example 2, (7E)-7-Hydroxyimino-4,5,6,7-tetrahydro-benzo[b]thiophene-3-sulfonic acid[2-(4-fluorophenyl)-2-hydroxyethyl]-methyl-amide] | 9.66 |
| CN(CCc1ccc(F)cc1)S(=O)(=O)c1csc2c1CCC/C2=N/O [Example 3, (7Z)-7-Hydroxyimino-4,5,6,7-tetrahydro-benzo[b]thiophene-3-sulfonic acid[2-(4-fluorophenyl)-ethyl]-methyl-amide] | 9.22 |
| CN(CCc1ccc(F)cc1[N+](=O)[O-])S(=O)(=O)c1csc2c1CCC/C2=N/O [Example 5, (7Z)-7-Hydroxyimino-4,5,6,7-tetrahydro-benzo[b]thiophene-3-sulfonic acid[2-(4-fluoro-2-nitro-Phenyl)-ethyl]-methyl-amide] | 7.68 |
| CN(CCc1ccc(F)c([N+](=O)[O-])c1)S(=O)(=O)c1csc2c1CCC/C2=N/O [Example 6, (7Z)-7-Hydroxyimino-4,5,6,7-tetrahydro-benzo[b]thiophene-3-sulfonic acid[2-(4-fluoro-3-nitro-phenyl)-ethyl]-methyl-amide] | 8.31 |
| CN(CC(O)c1ccc(F)cc1F)S(=O)(=O)c1csc2c1CCC/C2=N/O (centres unmarked) [Example 17, (7Z)-7-Hydroxyimino-4,5,6,7-tetrahydro-benzo[b]thiophene-3-sulfonic acid[2-(2,4-difluorophenyl)-2-hydroxyethyl]-methyl-amide] | 7.81 |
| CN(CC(NC(N)=O)c1ccc(F)cc1)S(=O)(=O)c1csc2c1CCCC2=NO (centres unmarked) [Example 25, 7-Hydroxyimino-4,5,6,7-tetrahydrobenzo[b]thiophene-3-sulfonic acid [(2-(4-fluorophenyl)-2-ureideethyl)]-methyl-amide] | 7.89 |
| CC1CCc2c(S(=O)(=O)N(C)CCc3ccc(F)cc3)csc2/C1=N\O (centres unmarked) [Example 31, (7Z)-7-Hydroxyimino-6-methyl-4,5,6,7-tetrahydrobenzo[b]-thiophene-3-sulfonic acid[(2-(4-fluorophenyl)ethyl)]-methyl-amide] | 8.37 |
| CC1CCc2c(S(=O)(=O)N(C)CC(O)c3ccc(F)cc3)csc2/C1=N\O (centres unmarked) [Example 32, (7Z)-7-Hydroxyimino-6-methyl-4,5,6,7-tetrahydrobenzo[b]-thiophene-3-sulfonic acid[(2-(4-fluorophenyl)-2-hydroxyethyl)]-methyl-amide] | 8.00 |
| CN(CCc1ccc(F)cc1)S(=O)(=O)c1csc2c1CCC(O)/C2=N/O (centres unmarked) [Example 33, (7Z)-6-Hydroxy-7-hydroxyimino-4,5,6,7-tetrahydrobenzo[b]-thiophene-3-sulfonic acid[(2-(4-fluorophenyl)ethyl)]-methyl-amide] | 7.96 |
| C/C(=N/O)c1ccc(S(=O)(=O)N(C)CCc2ccc(F)cc2)s1 [Example 37] | 7.52 |
| C/C(=N/O)c1cc(S(=O)(=O)N(C)CC(O)c2ccc(F)cc2)cs1 (centres unmarked) [Example 44] | 9.20 |
| C/C(=N/O)c1cc(S(=O)(=O)N(C)CC(O)c2ccc(F)cc2)c(N)s1 (centres unmarked) [Example 52, 2-Amino-5-[(1Z)-hydroxyimino-ethyl]-thiophene-3-sulfonic acid [2-(4-fluorophenyl)-2-hydroxyethyl]-methyl-amide] | 8.10 |
| C/C(=N/O)c1cc(S(=O)(=O)N(C)CCc2ccc(F)cc2)c(N)s1 [Example 60, 2-Amino-5-[(1Z)-hydroxyimino-ethyl]-thiophene-3-sulfonic acid [2-(4-fluorophenyl)-ethyl]-methyl-amide] | 8.80 |
| C/C(=N\O)c1cc(S(=O)(=O)N(C)CCc2ccc(F)cc2)c(N)s1 [Example 61, 2-Amino-5-[(1E)-hydroxyimino-ethyl]-thiophene-3-sulfonic acid [2-(4-fluorophenyl)-ethyl]-methyl-amide] | 7.18 |
| CC(C)/C(=N/O)c1cc(S(=O)(=O)N(C)CCc2ccc(F)cc2)c(N)s1 [Example 63, 2-Amino-5-[(1Z)-hydroxyimino-2-methylpropyl]thiophene-3-sulfonic acid[2-(4-fluorophenyl)ethyl]-methyl-amide] | 7.40 |
| CC(C)C(=NO)c1cc(S(=O)(=O)N(C)CC(O)c2ccc(F)cc2)c(N)s1 (centres unmarked) [Example 64, 2-Amino-5-(1-hydroxyimino-2-methylpropyl)thiophene-3-sulfonic acid[2-(4-fluorophenyl)-2-hydroxyethyl]-methyl-amide] | 7.40 |
